Where two headings read alike, the source gives them in different places.
Assays:
[1] = molecular target: T1, hAT1R (Homo sapiens, UniProt P30556); type: binding; conditions: read-out: % Inhibition of hAT1R at 10 μM
T1 sequence (P30556 1-359): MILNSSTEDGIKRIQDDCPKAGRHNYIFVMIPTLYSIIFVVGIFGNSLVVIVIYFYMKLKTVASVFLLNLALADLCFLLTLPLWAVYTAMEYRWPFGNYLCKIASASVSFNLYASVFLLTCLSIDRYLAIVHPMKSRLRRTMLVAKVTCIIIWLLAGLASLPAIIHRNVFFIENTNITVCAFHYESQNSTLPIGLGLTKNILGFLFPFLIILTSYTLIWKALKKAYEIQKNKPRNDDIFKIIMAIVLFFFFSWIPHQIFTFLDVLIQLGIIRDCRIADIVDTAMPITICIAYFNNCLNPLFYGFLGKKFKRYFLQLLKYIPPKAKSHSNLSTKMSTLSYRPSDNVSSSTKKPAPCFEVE

[2] = molecular target: T2, hAT2R (Homo sapiens, UniProt P50052); type: binding
T2 sequence (P50052 1-363): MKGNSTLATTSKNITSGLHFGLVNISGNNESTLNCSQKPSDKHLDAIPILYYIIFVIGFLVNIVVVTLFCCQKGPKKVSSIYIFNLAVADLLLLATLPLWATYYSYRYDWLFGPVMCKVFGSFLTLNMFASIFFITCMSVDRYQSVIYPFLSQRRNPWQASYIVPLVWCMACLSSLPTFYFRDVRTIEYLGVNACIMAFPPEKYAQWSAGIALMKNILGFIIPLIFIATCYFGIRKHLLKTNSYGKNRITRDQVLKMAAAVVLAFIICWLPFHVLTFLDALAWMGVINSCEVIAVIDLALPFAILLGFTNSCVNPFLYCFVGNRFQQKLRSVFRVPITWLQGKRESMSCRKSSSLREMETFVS

[3] = molecular target: T1, hAT1R; test: Assay 2: whole cell competition binding assay, HEK293 cells expressing AT1R
[4] = molecular target: T2, hAT2R; test: Assay 2: whole cell competition binding assay, HEK293 cells expressing AT2R

| SMILES | inhibition at 10 µM [1] [%] | Ki [2] [nM] | other results |
| --- | --- | --- | --- |
| CCCCOC(=O)NS(=O)(=O)c1sc(CC(C)C)cc1-c1cccc2c1CN(C(C)=O)C2 [Compound 83] | 15 | > 1500 | IC50 [2]: > 3000 nM |
| CCOC(=O)NS(=O)(=O)c1sc(CC(C)C)cc1-c1ccc2c(c1)CN(C)C(=O)C2 [Compound 94] | 1.5 | 1300 | – |
| CCCCOC(=O)NS(=O)(=O)c1sc(CC(C)C)cc1-c1ccc(OC(F)(F)F)c(Cn2ccnc2)c1 [Compound 47] | 1.8 | – | – |

The remaining compounds from weak to strong by Ki [2], led by results:

| inhibition at 10 µM [1] [%] | Ki [2] [nM] | SMILES | other results |
| --- | --- | --- | --- |
| 26 | 1300 | CCOC(=O)NS(=O)(=O)c1sc(CC(C)C)cc1-c1ccc2c(c1)CN(C(=O)OCC)C2 [Compound 89] | drop in hAT2R affinity compared to compound 86 ([2]; versus 86): 20 fold; decrease in hAT2R affinity compared to methyl carbamate 92 ([2]; versus 92): ~5 fold |
| 7.7 | 870 | CCOC(=O)NS(=O)(=O)c1sc(CC(C)C)cc1-c1ccc2c(c1)CN(C(C)=O)C2 [Compound 88] | – |
| 7.5 | 360 | CCCCOC(=O)NS(=O)(=O)c1sc(CC(C)C)cc1-c1ccc2c(c1)CN(C(C)=O)C2 [Compound 85] | – |
| 45 | 270 | CCCCOC(=O)NS(=O)(=O)c1sc(CC(C)C)cc1-c1ccc2c(c1)CN(C(C)=O)CC2 [Compound 87] | – |
| 34 | 56 | CCCCOC(=O)NS(=O)(=O)c1sc(CC(C)C)cc1-c1ccc2c(c1)CCN(C(C)=O)C2 [Compound 86, Butyl ((3‐(2‐acetyl‐1,2,3,4‐tetrahydroisoquinolin‐6‐yl)‐5‐isobutylthiophen‐2‐yl)sulfonyl)carbamate] | improvement of hAT2R affinity compared to C38 ([2]; versus C38): 5 fold; improvement of hAT2R affinity compared to amides C93 and C97 ([2]; versus C93 and C97): 2 fold; IC50 [3]: > 10000 nM; IC50 [4]: 818 nM |
